Assay results reported in patent US20050101482A1, “Novel adsorbent” (priority 2001, published 2005).

Columns and labels:
[1] = orally ingested to a rabbit; cited from earlier work
[2] = in human beings; cited from earlier work
[3] = Concentration of Erythromycin in the blood of rabbits; assay type: in vivo; conditions: rabbit, 1.5 hours after the oral ingestion of 40 mg per head, groups taking and not taking the adsorbent alike
Procedure: The symptom of diarrhea was manifested in 100% of the rabbits of the group not using the adsorbent and 0% of the rabbits of the group using the adsorbent. At this time, in the group of rabbits taking the adsorbent and the group of rabbits not taking the adsorbent alike, the concentration of Erythromycin in the blood measured 1.5 hours after the oral ingestion was invariably in the range of 0.12-0.13 μg/ml.

[4] = orally ingested into human beings; cited from earlier work

SMILES: C[C@H]1CC[C@@H]2[C@@H](C)[C@H]3[C@H](C[C@H]4[C@@H]5CC=C6C[C@@H](O[C@@H]7O[C@H](CO)[C@H](O)[C@H](O[C@@H]8O[C@H](CO)[C@@H](O)[C@H](O)[C@H]8O)[C@H]7O[C@H]7O[C@@H](C)[C@H](O)[C@@H](O)[C@H]7O)CC[C@]6(C)[C@H]5CC[C@]34C)N2C1 [Solanine]
- LD50 [1]: 450 mg/kg
- concentration causing poisoning [2]: 0.2 to 0.4 g

SMILES: CC[C@H]1OC(=O)[C@H](C)[C@@H](O[C@H]2C[C@@](C)(OC)[C@@H](O)[C@H](C)O2)[C@H](C)[C@@H](O[C@@H]2O[C@H](C)C[C@H](N(C)C)[C@H]2O)[C@](C)(O)C[C@@H](C)C(=O)[C@H](C)[C@@H](O)[C@]1(C)O [Erythromycin]
- concentration at 1.5 h [3]: 120 to 130 ng/mL

SMILES: OCCOCCO [Diethylene glycol]
- toxicity LD50 [4]: 1000 mg/kg
